# How the values were obtained:
# DNase I = test: Stability in the presence of DNase I; type: in vitro ADME, human; settings: 1 unit of DNase I, 5 minutes at 37° C.
# Method: FIGS. 7A and 7B. Stability of apMNKQ2. Chip Experion™ DNA 1K Analysis Kit (BioRad, USA) for analyzing the stability of apMNKQ2 with 1 unit, 0.5 units, and 0.25 units of DNase I (FIG. 7A). In FIG. 7B, the degradation of aptamer apMNKQ2 in human plasma at 0, 6, 16, 24, 48, and 72 hours is depicted.
# In the context of the present invention, the term “incubated” is understood to mean being subjected to the assay conditions, specifically to incubation in a buffer with 10 mM Tris HCl, pH 7.5, 2.5 mM MgCl2, and 0.1 mM CaCl2).
# In the context of the present invention, the term “1 unit of DNase I” is understood to mean the amount of DNase I which completely degrades 1 μg of DNA in 10 minutes at 37° C.
# In the context of the present invention, “DNase I” is understood to mean the deoxyribonuclease-I protein encoded by the human DNASE1 gene. […]
# The previously structured aptamer apMNKQ2 (1 μg) was incubated in the presence of 1 unit, 0.5 units, and 0.25 units of the enzyme DNase I (ThermoFisher Scientific, USA) in the buffer supplied by the company (10 mM Tris HCl, pH 7.5, 2.5 mM MgCl2, 0.1 mM CaCl2)) for 5 minutes at 37° C., and the reaction was then stopped by adding 1 μL of 50 mM EDTA (ThermoFisher Scientific, USA) and heating at 65° C. for 10 minutes. […] The samples were analyzed using an Experion™ DNA 1K Analysis Kit chip (BioRad, USA). […]
# 4T1 cells [1] = test: MTT activity assay in 4T1 cells; type: cell-based, mouse; settings: 4T1 cells, 0, 250, 500 and 1000 nM, 48 hours
# Method: (§1) FIG. 21A-21E. In vivo efficacy of apMNKQ2 in a mouse metastatic model with an orthotopic xenograft of 4T1 cells. (A) Effect of apMNKQ2 aptamer on the proliferation of 4T1 cells (mouse breast tumor line). 4T1 cells were seeded in p96 at a density of 1.5×10^3 cells/well. […] The graph (FIG. 21A) represents the means±SEM of 3 independent experiments. (B) Effect of apMNKQ2 aptamer on migration and invasion of 4T1 cells. Cells were seeded in p6 at a density of 2×10^5 cells/well and transfected with 500 nM apMNKQ2 at 24 hours. At 6 hours they were deprived of serum, and after 24 hours they were collected and re-seeded (4×10^4 cells/well) in a transwell with and without matrigel, to perform migration and invasion tests, respectively. At 24 hours (migration) or 48 h (invasion), the transwell membranes were stained with Hoechst and the cells that had passed through the fluorescence microscopy were quantified. Values (FIG. 21B) represent the mean±SEM of 2-3 independent experiments. In vivo efficacy of apMNKQ2 in a mouse metastatic model with an orthotopic xenograft of 4T1 cells. […] The number of metastases is analyzed by the reverse staining method (with Chinese ink) and the metastases grouped according to their size in four groups (0.5, 1, 2 and >2). […]
# MTT activity. […] After 48 hours, the reduction of MTT was determined by means of spectrophotometry in Infinite F200 (TECAN, Switzerland) at 540 nm.
# 4T1 cells [2] = test: Transwell migration assay in 4T1 cells; type: cell-based, mouse; settings: 500 nM, 24 hours migration
# Method: as §1, with “At 6 hours they were deprived of serum, and after 24 hours they were collected and re-seeded (4×10^4 cells/well) in a transwell with and without matrigel, to perform migration and invasion tests, respectively.” left out, “quantified.” for “quantified. Values (FIG. 21B) represent the mean±SEM of 2-3 independent experiments. In vivo efficacy of apMNKQ2 in a mouse metastatic model with an orthotopic xenograft of 4T1 cells.”
# Cell migration and invasion assays were performed using transwell (Corning, USA). […] After that time, they were collected, counted, and reseeded 4×10^4 cells in 300 μl of a serum-free complete medium inside the transwell (migration) or a transwell on which a layer of 100 μL of Matrigel (Corning, USA) (invasion) had previously been polymerized. […] Finally, two washes in PBS were performed, and 5 photographs of each membrane of the transwell were taken using a fluorescence microscope (Olympus IX70). […]
substance,measurement,setting,value
"5′TGGGGTGGGCGGGCGGGGGTGGGGGTGGT-3′ (DNA, backbone and methylation of C not given here; further chemistry not fully specified) [apMNKQ2]",stability,DNase I,100%
same,cell proliferation as measured by MTT activity,4T1 cells [1],does not affect cell proliferation
same,migration of 4T1 cells,4T1 cells [2],significantly decrease
